# Measured values from patent US10076519B2 (CYTOKINETICS, INC., priority 2010, dated 2018).
# Tested on: rabbit skeletal myofibrils (fast skeletal myofibrils)
# Experiment: Activation of fast skeletal myofibrils (PUMA assay, PK/LDH-coupled ATPase at pCa25)
# Type: biochemical
# Conditions: AC1.4 determined according to the procedure of Example 39; reported as class symbols
# How it was run: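 Detergent-washed rabbit psoas myofibrils (~90% fast fibres, calcium-regulated) assayed at calcium giving 25% of maximal ATPase rate (pCa25). ADP turnover coupled via pyruvate kinase/lactate dehydrogenase to NADH oxidation, read at 340 nm. Buffer 12 mM PIPES, 2 mM MgCl2, 1 mM DTT, pH 6.8; AC1.4 values derived.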
row,Mean AC1.4,Structure (SMILES)
1,D (D=>20 uM),CC(C)(CNc1ccc(-c2ccc(C(=O)O)c(F)c2)nn1)c1ccc(F)cc1 [2-fluoro-4-(6-{[2-(4-fluorophenyl)-2-methylpropyl]amino}pyridazin-3-yl)benzoic acid]
2,D (D=>20 uM),CS(=O)(=O)N1CC(CNc2ccc(-c3ccc4[nH]ncc4c3)nn2)(c2ncccc2F)C1 [3-(3-fluoro(2-pyridyl))-3-{[(6-(1H-indazol-5-yl)pyridazin-3-yl)amino]methyl}-1-(methylsulfonyl)azetidine]
3,C (C=10-20 uM),CC(C)(CNc1nnc(-c2cccc(C(N)=O)c2)cc1C#N)c1ccc(F)cc1 [3-(5-cyano-6-{[2-(4-fluorophenyl)-2-methylpropyl]amino}pyridazin-3-yl)benzamide]

# Same assay, conditions: median AC1.4 class, procedure of Example 39
row,Structure (SMILES),Mean AC1.4
1,"CC(C)(N)C(=O)NCc1cnc(-c2ccc(NCC3(c4ncccc4F)CCC3)nn2)s1 [2-amino-N-({2-[6-({[(3-fluoro(2-pyridyl))cyclobutyl]methyl}ami-no)pyridazin-3-yl](1,3-thiazol-5-yl)}methyl)-2-methylpropanamide]",A (A=<1 uM)
2,"NCC(=O)NCc1cnc(-c2ccc(NCC3(c4ncccc4F)CCC3)nn2)s1 [2-amino-N-({2-[6-({[(3-fluoro(2-pyridyl))cyclobutyl]methyl}ami-no)pyridazin-3-yl](1,3-thiazol-5-yl)}methyl)acetamide]",A (A=<1 uM)
3,"NC(=O)Cc1cnc(-c2ccc(NCC3(c4ncccc4F)CCC3)nn2)s1 [2-{2-[6-({[(3-fluoro-2-pyridyl)cyclobutyl]methyl}ami-no)pyridazin-3-yl]-1,3-thiazol-5-yl}acetamide]",B (B=1-10 uM)
4,CC(C)(Nc1ccc(-c2cc(C(N)=O)ccc2F)nn1)c1ncccc1Cl [3-(6-{[1-(3-chloro(2-pyridyl))-isopropyl]amino}pyridazin-3-yl)-4-fluorobenzamide],B (B=1-10 uM)
5,CC(C)(Nc1ccc(-c2cccc(C(N)=O)c2)nn1)c1cccc(F)c1 [3-(6-{[1-(3-fluorophenyl)-isopropyl]amino}pyridazin-3-yl)benzamide],B (B=1-10 uM)
6,CC(C)(Nc1ccc(-c2cccc(C(N)=O)c2)nn1)c1ccc(F)cc1 [3-(6-{[1-(4-fluorophenyl)-isopropyl]amino}pyridazin-3-yl)benzamide],B (B=1-10 uM)

# The remaining lines, values ahead:
row,Mean AC1.4,Structure (SMILES)
1,C (C=10-20 uM),"CC(C)(O)c1cnc(-c2ccc(NCC3(c4ncccc4F)CCC3)nn2)s1 [2-{2-[6-({[(3-fluoro-2-pyridyl)cyclobutyl]methyl}ami-no)pyridazin-3-yl]-1,3-thiazol-5-yl}propan-2-ol]"
2,D (D=>20 uM),"NC(=O)Cn1nnc(-c2ccc(NCC3(c4ncccc4F)CCC3)nn2)n1 [2-{5-[6-({[(3-fluoro-2-pyridyl)cyclobutyl]methyl}ami-no)pyridazin-3-yl]-1,2,3,4-tetraazol-2-yl}acetamide]"
3,A (A=<1 uM),CC(C)(CNc1ccc(-c2ccc3[nH]nc(NCCO)c3c2)nn1)c1ccc(F)cc1 [2-{[5-(6-{[2-(4-fluorophenyl)-2-methylpropyl]amino}pyridazin-3-yl)-1H-indazol-3-yl]amino}ethan-1-ol]
4,A (A=<1 uM),"O=C(NCc1cnc(-c2ccc(NCC3(c4ncccc4F)CCC3)nn2)s1)c1cn[nH]n1 [2H-1,2,3-triazol-4-yl-N-({2-[6-({[(3-fluoro(2-pyridyl))cyclobutyl]methyl}ami-no)pyridazin-3-yl](1,3-thiazol-5-yl)}methyl)carboxamide]"

# Same assay, conditions: median AC1.4 reported as class; procedure of Example 39
row,Structure (SMILES),Mean AC1.4
1,"CN(Cc1cnc(-c2ccc(NCC3(c4ncccc4F)CCC3)nn2)s1)C(=O)C(C)(C)N [2-amino-N-({2-[6-({[(3-fluoro(2-pyridyl))cyclobutyl]methyl}ami-no)pyridazin-3-yl](1,3-thiazol-5-yl)}methyl)-2-methyl-N-methylpropanamide]",A (A=<1 uM)
2,"NC(=O)Cc1cnc(-c2ccc(NC[C@]3(c4ncccc4Cl)C[C@H](F)C3)nn2)s1 [2-{2-[6-({[1-(3-chloro(2-pyridyl))-3-fluorocyclobutyl]methyl}ami-no)pyridazin-3-yl]-1,3-thiazol-5-yl}acetamide]",B (B=1-10 uM)
3,"CNC(=O)Cc1cnc(-c2ccc(NC[C@]3(c4ncccc4Cl)C[C@H](F)C3)nn2)s1 [2-{2-[6-({[1-(3-chloro(2-pyridyl))-3-fluorocyclobutyl]methyl}amino)pyr-idazin-3-yl](1,3-thiazol-5-yl)}-N-methylacetamide]",B (B=1-10 uM)
4,"NC(=O)Cc1cnc(-c2ccc(NC[C@]3(c4ncccc4F)C[C@H](F)C3)nn2)s1 [2-{2-[6-({[3-fluoro-1-(3-fluoro(2-pyridyl))cyclobutyl]methyl}ami-no)pyridazin-3-yl]-1,3-thiazol-5-yl}acetamide]",B (B=1-10 uM)
5,"O=C(O)Cc1cnc(-c2ccc(NC[C@]3(c4ncccc4F)C[C@H](F)C3)nn2)s1 [2-{2-[6-({[3-fluoro-1-(3-fluoro(2-pyridyl))cyclobutyl]methyl}ami-no)pyridazin-3-yl]-1,3-thiazol-5-yl}acetic acid]",B (B=1-10 uM)
6,"CNC(=O)Cc1cnc(-c2ccc(NCC3(c4ncccc4Cl)CCC3)nn2)s1 [2-{2-[6-({[(3-chloro(2-pyridyl))cyclobutyl]methyl}ami-no)pyridazin-3-yl](1,3-thiazol-5-yl)}-N-methylacetamide]",A (A=<1 uM)
7,"CC(C)(C#N)c1cnc(-c2ccc(NCC3(c4ncccc4F)CCC3)nn2)s1 [2-{2-[6-({[(3-fluoro(2-pyridyl))cyclobutyl]methyl}ami-no)pyridazin-3-yl](1,3-thiazol-5-yl)}-2-methylpropanenitrile]",D (D=>20 uM)
8,"CN(C)C(=O)Cc1cnc(-c2ccc(NCC3(c4ncccc4F)CCC3)nn2)s1 [2-{2-[6-({[(3-fluoro(2-pyridyl))cyclobutyl]methyl}ami-no)pyridazin-3-yl](1,3-thiazol-5-yl)}-N,N-dimethylacetamide]",B (B=1-10 uM)
9,"Cc1cc(NCC2(c3ncccc3F)CCC2)nnc1-c1ncc(CC(N)=O)s1 [2-{2-[6-({[(3-fluoro(2-pyridyl))cyclobutyl]methyl}amino)-4-methylpyridazin-3-yl]-1,3-thiazol-5-yl}acetamide]",B (B=1-10 uM)
10,"NC(=O)c1csc(NC(=O)c2ccc(NCC3(c4ncccc4F)CCC3)nn2)n1 [2-{[6-({[(3-fluoro-2-pyridyl)cyclobutyl]methyl}ami-no)pyridazin-3-yl]carbonylamino}-1,3-thiazole-4-carboxamide]",A (A=<1 uM)
11,NC(=O)C1CCCC1NC(=O)c1ccc(NCC2(c3ncccc3F)CCC2)nn1 (stereo not drawn) [2-{[6-({[(3-fluoro-2-pyridyl)cyclobutyl]methyl}ami-no)pyridazin-3-yl]carbonylamino}cyclopentane-carboxamide],D (D=>20 uM)
12,"NC(=O)c1coc(NC(=O)c2ccc(NCC3(c4ncccc4F)CCC3)nn2)n1 [2-{[6-({[(3-fluoro-2-pyridyl)cyclobutyl]methyl}amino)pyr-idazin-3-yl]carbonylamino}-1,3-oxazole-4-carboxamide]",D (D=>20 uM)

# Next, values leading:
row,Mean AC1.4,Structure (SMILES)
1,B (B=1-10 uM),"OCCNCc1cnc(-c2ccc(NCC3(c4ncccc4F)CCC3)nn2)s1 [2-[({2-[6-({[(3-fluoro-2-pyridyl)cyclobutyl]methyl}ami-no)pyridazin-3-yl]-1,3-thiazol-5-yl}methyl)amino]ethan-1-ol]"
2,A (A=<1 uM),"CC(C)(N)C(=O)NCc1cnc(-c2ccc(NCC(C)(C)c3ncccc3Cl)nn2)s1 [2-amino-N-{[2-(6-{[2-(3-chloro(2-pyridyl))-2-methylpropyl]amino}pyridazin-3-yl)(1,3-thiazol-5-yl)]methyl}-2-methylpropanamide]"
3,B (B=1-10 uM),O=C(O)c1cc(-c2ccc(NC[C@]3(c4ncccc4F)C[C@H](F)C3)nn2)ccc1F [2-fluoro-5-[6-({[3-fluoro-1-(3-fluoro(2-pyridyl))cyclobutyl]methyl}ami-no)pyridazin-3-yl]benzoic acid]
4,A (A=<1 uM),"NC(=O)Cc1cnc(-c2ccc(NCC3(c4ncccc4Cl)CCC3)nn2)s1 [2-{2-[6-({[(3-chloro-2-pyridyl)cyclobutyl]methyl}ami-no)pyridazin-3-yl]-1,3-thiazol-5-yl}acetamide]"
5,D (D=>20 uM),"CC(C)(C(N)=O)c1cnc(-c2ccc(NCC3(c4ncccc4F)CCC3)nn2)s1 [2-{2-[6-({[(3-fluoro(2-pyridyl))cyclobutyl]methyl}ami-no)pyridazin-3-yl](1,3-thiazol-5-yl)}-2-methylpropanamide]"
6,B (B=1-10 uM),"CNC(=O)Cc1cnc(-c2ccc(NCC3(c4ncccc4F)CCC3)nn2)s1 [2-{2-[6-({[(3-fluoro(2-pyridyl))cyclobutyl]methyl}ami-no)pyridazin-3-yl](1,3-thiazol-5-yl)}-N-methylacetamide]"
7,B (B=1-10 uM),"CNC(=O)Cc1cnc(-c2nnc(NCC3(c4ncccc4F)CCC3)cc2C)s1 [2-{2-[6-({[(3-fluoro(2-pyridyl))cyclobutyl]methyl}amino)-4-methylpyridazin-3-yl](1,3-thiazol-5-yl)}-N-methylacetamide]"
8,B (B=1-10 uM),"Cc1cc(NCC2(c3ncccc3F)CCC2)nnc1-c1ncc(CC(=O)O)s1 [2-{2-[6-({[(3-fluoro(2-pyridyl))cyclobutyl]methyl}amino)-4-methylpyridazin-3-yl]-1,3-thiazol-5-yl}acetic acid]"
9,D (D=>20 uM),"NC(=O)Cc1csc(-c2ccc(NCC3(c4ncccc4F)CCC3)nn2)n1 [2-{2-[6-({[(3-fluoro-2-pyridyl)cyclobutyl]methyl}ami-no)pyridazin-3-yl]-1,3-thiazol-4-yl}acetamide]"
10,B (B=1-10 uM),"O=C(O)Cc1cnc(-c2ccc(NCC3(c4ncccc4F)CCC3)nn2)s1 [2-{2-[6-({[(3-fluoro-2-pyridyl)cyclobutyl]methyl}ami-no)pyridazin-3-yl]-1,3-thiazol-5-yl}acetic acid]"
11,B (B=1-10 uM),NC(=O)Cc1ccc(F)c(-c2ccc(NCC3(c4ncccc4F)CCC3)nn2)c1 [2-{4-fluoro-3-[6-({[(3-fluoro(2-pyridyl))cyclobutyl]methyl}ami-no)pyridazin-3-yl]phenyl}acetamide]
